Source: patent publication US20200054601A1, “NOVEL METHODS” (Ethismos Research, Inc., priority 2018, published 2020)

Tests used:
[1] = Qualitative solubility testing of the test article in the test system; type: physicochemical; conditions: aqueous buffer; pH 7.4, potassium phosphate buffer, MgCl2, EDTA, human liver microsomes 0.0125 mg/mL; read-out: Soluble in the test system (visual comparison)
Protocol: Since stability of the test article solutions is not known, the stock solution and dilutions to working solutions are prepared fresh on the day of use.

[2] = cited from earlier work
[3] = cited from earlier work; for Help in smoking cessation: reported, nortriptyline as the sole pharmacotherapy
[4] = cited from earlier work; for Efficacy in MDD trials: phase 2 / phase 2b trials in MDD
CYP2A6 = target: T1, CYP2A6 (Homo sapiens, UniProt P11509); test: Inhibition of CYP2A6 coumarin 7-hydroxylation in human liver microsomes (direct, time- and metabolism-dependent); conditions: both, pH 7.4
T1 sequence (P11509 1-494): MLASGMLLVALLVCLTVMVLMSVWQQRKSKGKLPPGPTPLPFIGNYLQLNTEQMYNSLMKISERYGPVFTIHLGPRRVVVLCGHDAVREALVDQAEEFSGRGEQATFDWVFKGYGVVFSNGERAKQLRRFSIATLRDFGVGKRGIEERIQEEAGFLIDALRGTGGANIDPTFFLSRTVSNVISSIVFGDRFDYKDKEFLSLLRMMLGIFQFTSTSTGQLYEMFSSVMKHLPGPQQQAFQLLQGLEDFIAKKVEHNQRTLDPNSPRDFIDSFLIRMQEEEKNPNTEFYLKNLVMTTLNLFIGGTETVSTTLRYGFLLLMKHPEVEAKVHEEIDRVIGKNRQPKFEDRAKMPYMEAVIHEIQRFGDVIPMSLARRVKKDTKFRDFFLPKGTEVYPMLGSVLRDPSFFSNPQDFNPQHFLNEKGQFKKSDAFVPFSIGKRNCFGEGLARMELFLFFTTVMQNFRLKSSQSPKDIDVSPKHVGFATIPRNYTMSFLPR
Protocol: Known direct and metabolism-dependent inhibitors of CYP2A6 are included as positive controls.
Human liver microsomes from non-transplantable, donated livers are prepared and characterized at the testing facility as outlined by Pearce, R. et al., “Effects of Freezing, Thawing, and Storing Human Liver Microsomes on Cytochrome P450 Activity,” Archives of Biochemistry and Biophysics, 1996, 331 (2), 145-169 and Parkinson, A. et al., “The Effects of Gender, Age, Ethnicity and Liver Cirrhosis on Cytochrome P450 Enzyme Activity in Human Liver Microsomes and Inducibility in Cultured Human Hepatocytes,” Toxicology and Applied Pharmacology, 2004, 199 (3), 193-209. A mixed-gender pool of 200 individual human liver microsomal samples is used for this study (Sekisui XenoTech catalog number: H2610). The kinetic constants (S50 or Km) used to select marker substrate concentrations and incubation conditions are determined previously.
Incubation mixtures are prepared in bulk to obviate the need for directly pipetting very small volumes (i.e., 1 μL or less). The test article is dissolved in water and added directly to incubation mixtures.
A Tecan liquid handling system conducts all incubations. Duplicate aliquots of the buffer mixtures are automatically added to 96-well plates at the appropriate locations. […] The supernatant fractions are analyzed by liquid chromatography tandem mass spectrometry (LC-MS/MS). […]

**Q.** With `Clc1ccc([C@]23CNC[C@H]2C3)cc1Cl` [Amitifadine, (1R,5S)-1-(3,4-dichlorophenyl)-3-azabicyclo[3.1.0]hexane] as the compound, how does the solubility [1] read?
**A.** The solubility was at least 200 µM.

**Q.** What about the “Effect size in depression” value ([2]; depression) of the same compound?
**A.** Its value is 0.6.

**Q.** What about the Tolerability ([2]; given by mouth twice daily for up to 12 weeks) of the same compound?
**A.** Its Tolerability is “good tolerability”.

**Q.** Which “Help in smoking cessation” value [3] does the source give for `CNCCC=C1c2ccccc2CCc2ccccc21` [nortriptyline] here?
**A.** Its value is “increases long-term smoking cessation”.

**Q.** With `N[C@@H]1CC[C@@H](c2ccc(Cl)c(Cl)c2)c2ccccc21` [SEP-225289] as the compound, how does the “Efficacy in MDD trials” value [4] read?
**A.** The value was “failed to differentiate versus the comparators”.

**Q.** For `CN1CCCC1c1cccnc1` (centres unmarked) [Nicotine], which inhibition at 5 min, 300 µM (CYP2A6) is on record?
**A.** Its inhibition at 5 min, 300 µM is 82.5%.

**Q.** Which “Efficacy in MDD trials” value [4] does the source give for `COC[C@@H]1[C@@H](c2ccc(Cl)c(Cl)c2)C[C@@H]2CC[C@H]1N2` [GSK-372475] here?
**A.** The value was “failed”.

**Q.** With `COc1ccc(C(CN(C)C)C2(O)CCCCC2)cc1` (centres unmarked) [venlafaxine] as the compound, how does the “Help in smoking cessation” value [3] read?
**A.** The value was “has not been shown to help”.

**Q.** What does the source list for `c1cnc2cc3c(cc2n1)[C@@H]1CNC[C@H]3C1` [varenicline]?
**A.** One year abstinence rate ([3]; smoking cessation): 23%; 6-month abstinence rate ([3]; smoking cessation, placebo 10.6%): 27.6%

**Q.** Which “Efficacy in treatment resistant depression versus active comparators” value ([4]; two large phase 2b trials in TRD) does the source give for `CN1Cc2cc(-c3ccc(N)nn3)ccc2[C@H](c2ccc3ccccc3c2)C1` [Liafensine] here?
**A.** The value was “no different from full-dose escitalopram (an SSRI) or duloxetine (an SNRI)”.
